Data on one compound can be found in EP0214009A2, “Enaminones as potential prodrugs of primary and secondary amines” (priority 1985, dated 1987).

Data set [1] can be described thus: Hydrolysis in the presence of rat plasma. The format is in vitro ADME.
Data set [2] is described as follows: Chemical hydrolysis in isotonic Sorensen phosphate buffer, followed spectrophotometrically. The format is physicochemical. To be noted: pH 7.4, 25°C, no enzyme, read-out: apparent half lives for chemical hydrolysis.
A short description of data set [3]: Hydrolysis in the presence of rat intestinal homogenates. The format is in vitro ADME.
Data set [4] is described as follows: Hydrolysis in the presence of human plasma. Format: in vitro ADME.
A further data set has as its system carbonic anhydrase. As to the kind of experiment: Hydrolysis in the presence of carbonic anhydrase. Format: in vitro ADME.
The nature of data set [5]: Hydrolysis in the presence of rat liver homogenates. Format: in vitro ADME.
For the next data set, the system named is Porcine liver esterase. In words: Hydrolysis in the presence of porcine liver esterase (half-lives, Michaelis-Menten parameters from Lineweaver Burk plots). Format: in vitro ADME.
Experiment in data set [6]: as above
Format: in vitro ADME. Conditions: pig; 60 × 10⁻⁴ units/ml porcine liver esterase, initial substrate concentration 16 µM, pH 7.4, 25°C; read-out: apparent half lives in the presence of porcine liver esterase.

Read-outs that look alike come from different tables or passages of the source.

The Km is the concentration of substrate that gives half-maximal velocity.

Turning to `CCOC(=O)C1=C(Nc2ccccc2)CCCC1` [Example 2, Ethyl 2-(N-phenylamino)-l-cyclohexene-l-carboxylate], the “Catalysis of the hydrolysis” value (in data set [1]; in data set [3]; in data set [4]; in the data set on carbonic anhydrase; in data set [5]) was “not observed” throughout. In addition, the half-life in data set [2] amounted to 18 min. The Km amounted to 7.2 mM in the data set on Porcine liver esterase (average over the three enzyme concentrations, read-out: Average Km); 11.2 ± 0.1 mM in the data set on Porcine liver esterase (enzyme concentration 16.7 (Units/ml x 10^4), read-out: Km ± S.D.); 5.3 ± 0.2 mM in the data set with Porcine liver esterase (enzyme concentration 32.4 (Units/ml x 10^4), read-out: Km ± S.D.); 5.2 ± 0.2 mM in the data set on Porcine liver esterase (enzyme concentration 61.2 (Units/ml x 10^4), read-out: Km ± S.D.). For the same compound, the results for the “Vmax ± S.D.” value in the data set on Porcine liver esterase (enzyme concentration 16.7 (Units/ml x 10^4)), with Porcine liver esterase (enzyme concentration 32.4 (Units/ml x 10^4)) and in the data set with Porcine liver esterase (enzyme concentration 61.2 (Units/ml x 10^4)) were 45.5 ± 3 mM/h, 56.8 ± 8 mM/h and 95.2 ± 10 mM/h, respectively. The half-life at 16 µM in data set [6] was found to be 10 min.
